Test results published in patent US8541444B2, “Triazolopyridine 11-beta hydroxysteroid dehydrogenase type I inhibitors” (Bristol-Myers Squibb Company, priority 2007, dated 2013).

Tests used:
[1] = Moisture sorption study; assay type: physicochemical; details: Form N-1 of the HCl salt; range from about 25 to about 75% RH at 25° C.
Experimental: Moisture sorption isotherms were collected in a VTI SGA-100 Symmetric Vapor Analyzer using approximately 10 mg of sample. The sample was dried at 60° C. until the loss rate of 0.0005 wt %/min was obtained for 10 minutes. The sample was tested at 25° C. and 3 or 4, 5, 15, 25, 35, 45, 50, 65, 75, 85, and 95% RH. Equilibration at each RH was reached when the rate of 0.0003 wt %/min for 35 minutes was achieved or a maximum of 600 minutes.

[2] = target: T1, recombinant human 11beta-HSD1 (Homo sapiens, UniProt P28845); test: 11β-HSD1 SPA enzyme assay (in vitro inhibition of recombinant human 11beta-HSD1); assay type: biochemical; details: human 11β-HSD1 microsomes from HEK 293 EBNA cells, 3H-cortisone 40 nM, 4 hrs room temperature
T1 construct: Full length recombinant human 11β-HSD1 cDNAs and the cDNA encoding human 11β-HSD2 were expressed stably in HEK 293 EBNA cells; made in house; microsome fraction used
T1 sequence (P28845 whole entry): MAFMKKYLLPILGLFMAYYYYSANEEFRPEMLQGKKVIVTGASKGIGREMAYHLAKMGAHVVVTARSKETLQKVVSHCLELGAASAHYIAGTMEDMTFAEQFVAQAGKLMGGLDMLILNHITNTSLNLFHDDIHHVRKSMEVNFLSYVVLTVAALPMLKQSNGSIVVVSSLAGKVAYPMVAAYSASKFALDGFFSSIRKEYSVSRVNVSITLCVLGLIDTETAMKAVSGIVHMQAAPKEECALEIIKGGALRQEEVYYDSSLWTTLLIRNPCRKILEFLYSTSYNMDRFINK
Experimental: The in vitro inhibition of recombinant human 11beta-HSD1 was determined as follows.
The supernatant was further centrifuged at 105,000×g for […]. The 105,000×g pellet was resuspended in buffer H and centrifuged at 105,000×g for 60 min. […] Aliquots were stored at −80° C. until needed. The protein concentration was measured by the BioRad method using BSA standard.
Compounds were dissolved in DMSO to obtain 10 mM stock concentrations. From the 10 mM stock, the compounds were diluted in DMSO to achieve the concentrations.
11β-HSD1 SPA Enzyme Assay
11β-HSD1 was assayed by Scintillation Proximity assay in a 384-well Perkin Elmer white plate. The dose response of the compounds was determined using 11 half-log dilutions of compound in DMSO in duplicate. To each well, 0.5 μl of compound dilution in DMSO were added. 15 μl of assay buffer (for blanks) or 15 μl of human microsomes in assay buffer were added next and the plates were incubated for 10 min at room temperature. The final microsomal protein concentration was 1.1 μg/assay. Duplicates were in the same plate one row below the other. 10 μl of ^3H-cortisone (final concentration 40 nM) was added to each well and the plate was spun down to mix and bring down the contents to the bottom of the wells. The plates were incubated at room temperature with gentle shaking for 4 hrs. […] Then, 0.5 mg of yttrium silicate SPA beads coupled to anti-cortisol antibody in 20 μl were added to all the wells of plate, which were spun down once more and incubated at room temperature overnight. The plate was read in a TopCount® (1 min/well). Data were uploaded automatically to Tool Set, a Lead Evaluation informatics program for data capture and calculation. Graphs were generated with the Curve Master program.

[3] = target: T2, 11beta-HSD1 (Mus musculus, UniProt P50172); test: In vivo inhibition of 11beta-HSD1: DHC to corticosterone conversion in DIO mice; details: 30 mpk oral, plasma corticosterone AUC after DHC 10 mg/kg given 60 minutes post compound
T2 construct: from tissue; host or cells: whole animal: diet induced obese (DIO) mice, Jackson Laboratory
T2 sequence (P50172 whole entry): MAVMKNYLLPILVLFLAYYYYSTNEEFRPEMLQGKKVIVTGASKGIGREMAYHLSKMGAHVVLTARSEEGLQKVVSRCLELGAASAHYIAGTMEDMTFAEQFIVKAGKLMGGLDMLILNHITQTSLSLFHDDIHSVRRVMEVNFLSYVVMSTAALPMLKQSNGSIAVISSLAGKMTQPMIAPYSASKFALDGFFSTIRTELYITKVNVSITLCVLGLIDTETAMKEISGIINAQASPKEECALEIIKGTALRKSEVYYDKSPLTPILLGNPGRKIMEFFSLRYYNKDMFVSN
Experimental: The in vivo inhibition of […] 11beta-HSD1 was determined as follows.
Studies were conducted utilizing diet induced obese (DIO) mice obtained from Jackson Laboratory (ME, USA). These mice were fed a 60% fat diet (Research Diets D12492) soon after weaning and kept on this diet for 24 weeks. These mice were individually housed. […]. The animals continued on this diet and were utilized for experimentation at 30 to 32 weeks of age, at which time these mice weighed 45 to 55 grams.
The basic model of 11-dehydrocorticosterone (DHC) administration to mice to produce corticosterone has been reported in the literature for clinical and preclinical evaluation of the activity of 11β-HSD. […] Plasma was separated and collected and immediately frozen at −20° C. until corticosterone analysis could be assessed.
Plasma Corticosterone was measured using an EIA (IDS AC-14F1). Samples were measured at (1:2) for the −30(or −60 minute) and 0 time point and (1:10) for the 30, 60 and 120 minutes time points. AUC was calculated using Graphpad and the zero timepoint was used as the baseline. One way ANOVA was calculated using Sigmastat. […]
The vehicle utilized for the suspension of the compounds was 0.5% methocel; 0.1% tween 80 in water. […] Compounds were administered in 7.5 ml/kg volumes at final dosages of 0.1 to 300 mg/kg depending on the study and compound evaluated.

hygroscopicity (moisture sorption isotherm) [1] | IC50 [2] [nM] | inhibition at 30 mg/kg [3] [%] | Compound
non-hygroscopic |  |  | CC(C)(O)c1cccn2c(C3(c4ccc(Cl)cc4)CC3)nnc12.Cl [Example 1G, 2-(3-(1-(4-Chlorophenyl)cyclopropyl)-[1,2,4]triazolo[4,3-a]pyridin-8-yl)propan-2-ol HCl Salt]
 | 72 |  | CC(C)(O)c1cccn2c(C3(c4ccc(Cl)c(Cc5nnn[nH]5)c4)CC3)nnc12 [Example 42]
 | 0.4 |  | CC(C)(O)c1cccn2c(C3(c4ccc(-c5ccc(F)cc5)cc4)CC3)nnc12 [Example 51]
 | 2.3 | 53 | CC(C)(O)c1cccn2c(C3(c4ccc(Cl)cc4)CC3)nnc12 [Example 1, 2-(3-(1-(4-Chlorophenyl)cyclopropyl)-[1,2,4]triazolo[4,3-a]pyridin-8-yl) propan-2-ol]
 | 2820 |  | CC(C)(O)c1cccn2c(C3(c4nnn(Cc5ccccc5)n4)CC3)nnc12 [Example 112]
 | 0.7 |  | CC(C)(O)c1cccn2c(C3(c4ccc(Cl)cc4F)CC3)nnc12 [Example 54]
 | 0.5 |  | CC(C)(O)c1cccn2c(C3(c4nc(-c5ccc(Cl)cc5)cs4)CC3)nnc12 [Example 111]

Further lines, the compound ahead of its results:

Compound | hygroscopicity (moisture sorption isotherm) [1] | IC50 [2] [nM] | inhibition at 30 mg/kg [3] [%]
CC(C)(O)c1cccn2c(C3(c4nc(-c5ccc(F)cc5)cs4)CC3)nnc12 [Example 109] |  | 0.6 | 
CC(C)(O)c1cccc2c(C3(c4ccc(Cl)cc4)CC3)nnn12 [Example 6, 2-(3-(1-(4-Chlorophenyl)cyclopropyl)-[1,2,3]-triazolo[1,5-a]pyridin-7-yl) propan-2-ol] |  | 20 | 
CC(C)(O)c1cccn2c(C3(c4ccc(Cl)cc4)CCC3)nnc12 [Example 11] |  |  | 69
CC(C)(O)c1cccn2c(C3(C(=O)O)CC3)nnc12 [Example 80] |  | 7700 | 
CC(C)(c1cccn2c(C3(c4ccc(Cl)cc4)CCC3)nnc12)c1nnnn1CCC#N [Example 59] |  | 5490 | 
CN(C)C(=O)c1ccc(C2(c3nnc4c(C(C)(C)O)cccn34)CC2)cc1 [Example 86] |  | 35 | 
CC(C)(O)c1cccn2c(C3(c4nnn(Cc5ccc(F)cc5)n4)CC3)nnc12 [Example 110] |  | 104 | 
CC(C)(O)c1cccn2c(C3(c4nc(-c5ccccc5)c[nH]4)CC3)nnc12 [Example 104] |  | 191 | 
Cc1ccc(S(=O)(=O)C2(c3nnc4c(C(C)(C)O)cccn34)CC2)cc1C [Example 90] |  | 1380 | 
